Data on two compounds can be found in patent US5981517A, “Androstene derivatives” (priority 1997, dated 1999).

A short description of one series: in vitro. It counts as in vitro ADME. The settings on record: rat, lung cytosol. The procedure: To determine that the compounds of the invention can be stable during the incubation period, the test compounds A, B, C, and D were investigated for their stabilities at the incubation conditions, which are room temperature and 2 hours, for receptor binding studies. The frozen cytosol which was made for the receptor binding study was thawed in a water bath and diluted with 1 part of incubation buffer (10 mM Tris/HCl, 10 mM sodium molybdate, and 2 mM 1,4-dithiothreitol) containing a 15 mM concentration of enzyme inhibitor, diisopropyl fluorophosphate. Portions (560 μL) of the diluted cytosol were added to centrifuge tubes containing 80 μL portions of blank incubation buffer instead of volume of tracer ([^3 H]triamcinolone acetonide) which would be used in the receptor binding study (RBS), 80 μL of solution of a Δ^1 -cortienic acid (0.1 mM) in buffer (the final concentration of Δ^1 -cortienic acid in the incubation medium was […]), and 80 μL of 100,000 nM of concentrations of test compounds in ethanol to give a final concentration of 10,000 nM. This mixture was kept at room temperature for 2 hours. Samples of 0.1 mL were taken at appropriate time intervals (0, 0.5, 1, 1.5, 2 hours) and were mixed with 0.2 mL of acetonitrile containing 5% DMSO. Each mixture was centrifuged and the supernatant were injected in the HPLC.
Male Sprague-Dawley rats, each weighing 150 to 200 g, were used 6 days after adrenalectomy. Rats were sacrificed by decapitation. Immediately after resection of the lungs, the tissue was frozen in ice. The cytosol was prepared using a slight modification of a previously described method (Dahlberg, 1984); After addition of 6 volumes of ice-cold incubation buffer (10 mM Tris/HCl, 10 mM sodium molybdate, and 2 mM 1,4-dithiothreitol), the tissue was homogenized with the Virtis 45 homogenizer at full speed, for 4 periods of 10 seconds with a 10-second cooling period between each step. The homogenate was centrifuged at 35,000 g for 1 hour at 4° C. in a Beckman ultracentrifuge L8-70M equipped with a T170 rotor. Portions (5 ml) of the cytosol were frozen in liquid nitrogen and stored at -80° C.

Series [1] deals with T1, rat lung glucocorticoid receptor (Rattus norvegicus, UniProt P06536).
T1 construct: Immediately after resection of the lungs, the tissue was frozen in ice; The cytosol was prepared; from tissue; host or cells: lung cytosol of adrenalectomized male Sprague-Dawley rats
T1 sequence (P06536 1-795): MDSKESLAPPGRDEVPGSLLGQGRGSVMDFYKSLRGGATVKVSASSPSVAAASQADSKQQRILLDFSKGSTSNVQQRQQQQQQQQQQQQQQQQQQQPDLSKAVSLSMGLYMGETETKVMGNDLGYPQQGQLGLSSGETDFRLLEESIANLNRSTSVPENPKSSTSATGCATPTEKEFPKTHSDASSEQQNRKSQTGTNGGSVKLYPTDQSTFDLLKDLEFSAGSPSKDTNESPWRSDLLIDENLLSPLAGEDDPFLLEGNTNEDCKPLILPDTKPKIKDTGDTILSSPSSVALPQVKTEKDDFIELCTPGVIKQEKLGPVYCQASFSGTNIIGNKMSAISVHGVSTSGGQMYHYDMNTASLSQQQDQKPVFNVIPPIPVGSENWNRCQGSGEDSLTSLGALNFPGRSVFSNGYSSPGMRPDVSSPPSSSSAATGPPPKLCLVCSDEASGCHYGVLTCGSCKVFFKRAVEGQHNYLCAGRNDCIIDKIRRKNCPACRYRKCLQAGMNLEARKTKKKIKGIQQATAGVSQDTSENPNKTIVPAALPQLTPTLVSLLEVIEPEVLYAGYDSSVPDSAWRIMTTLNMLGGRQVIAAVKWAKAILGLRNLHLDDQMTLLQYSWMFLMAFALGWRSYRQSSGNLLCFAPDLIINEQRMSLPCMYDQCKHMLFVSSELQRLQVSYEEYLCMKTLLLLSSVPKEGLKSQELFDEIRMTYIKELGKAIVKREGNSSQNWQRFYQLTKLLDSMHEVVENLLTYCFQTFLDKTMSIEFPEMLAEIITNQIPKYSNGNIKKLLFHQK
The series is described as follows: Receptor binding studies ([3H]triamcinolone acetonide displacement). The settings on record: for RBA: further receptor binding studies (Table X), dexamethasone = 100, * mean ± SE of 3-5 results.

Series [2] deals with forearms of a human volunteer. The series is described as follows: Further human vasoconstriction testing, Method 1. Also: key: 0: normal skin; 1: slight pallor of indistinct outline; 2: pallor with at least two corners outlined; 3: even pallor with a clear outline of the application sites; 4: very intense pallor. It counts as in vivo. The essentials:
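Each mixture, 50 μL in ethanol, was loaded onto circular 8 mm patches. Once the ethanol had evaporated, the patches were placed on a human volunteer's forearms under a water-impervious film for 3 hr. After the patches were removed, vasoconstriction was scored at intervals from 0 (normal skin) to 4 (very intense pallor). The same individual received all tests, run 2-4 times per compound.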

[3] abbreviates: 24 Hours, 1 hour re-occlusion at 20-21 hours, 0.01 mM.
Setting [4] is: 24 Hours, 1 hour re-occlusion at 20-21 hours, 0.05 mM.
[5] abbreviates: 24 Hours, 1 hour re-occlusion at 20-21 hours, 0.1 mM.
The mark [6] stands for this setting: 24 Hours, 1 hour re-occlusion at 20-21 hours, 0.5 mM.

Compound `COC(=O)[C@@]1(OC(=O)C(Cl)Cl)[C@H](C)C[C@H]2[C@@H]3CCC4=CC(=O)C=C[C@]4(C)[C@@]3(F)[C@@H](O)C[C@@]21C` [Compound I, methyl 17α-dichloroacetoxy-9α-fluoro-11β-hydroxy-16α-methylandrosta-1,4-dien-3-one-17β-carboxylate] displayed an amount remaining at 2 h in “in vitro” of over 90%. The compound also registered an RBA in series [1] of 1745 ± 185. For the same compound, in series [1] (with respect to dexamethasone (RBA = 100), with Δ1-cortienic acid), the “Relative binding affinity (RBA)” value is reported as 495. Besides, the Vasoconstriction activity was 1 in series [2] (3 Hours, 0.01 mM); 2 in series [2] (3 Hours, 0.05 mM); 2 in series [2] (3 Hours, 0.1 mM); 3 in series [2] (3 Hours, 0.5 mM); 4 in series [2] (3 Hours, 1 mM); 4 in series [2] (3 Hours, 5 mM). The Vasoconstriction activity in series [2] (3 Hours, 10 mM) was 4; in series [2] (20 Hours, 0.01 mM), 0; in series [2] (20 Hours, 0.05 mM) it was 1; in series [2] (20 Hours, 0.1 mM), 1; in series [2] (20 Hours, 0.5 mM), 1; in series [2] (20 Hours, 1 mM) it was 1. The Vasoconstriction activity in series [2] (20 Hours, 5 mM) was 2; in series [2] (setting [3]), 1; in series [2] (setting [4]) it was 2; in series [2] (setting [5]) it was 3; in series [2] (setting [6]), 3.

`CCOC(=O)[C@@]1(OC(=O)C(Cl)Cl)[C@H](C)C[C@H]2[C@@H]3CCC4=CC(=O)C=C[C@]4(C)[C@@]3(F)[C@@H](O)C[C@@]21C` [J, ethyl 17α-dichloroacetoxy-9α-fluoro-11β-hydroxy-16α-methylandrosta-1,4-dien-3-one-17β-carboxylate] gave a share remaining at 2 h in “in vitro” of over 90%. In addition, in series [1], the RBA is listed as 687 ± 49. Also, the Vasoconstriction activity in series [2] (3 Hours, 0.01 mM) was found to be 0; in series [2] (3 Hours, 0.05 mM), 1; in series [2] (3 Hours, 0.1 mM), 2; in series [2] (3 Hours, 0.5 mM) it was 2; in series [2] (3 Hours, 1 mM) it was 3; in series [2] (3 Hours, 5 mM), 3. The Vasoconstriction activity in series [2] (3 Hours, 10 mM) is reported as 4; in series [2] (20 Hours, 0.01 mM), 0; in series [2] (20 Hours, 0.05 mM), 0; in series [2] (20 Hours, 0.1 mM), 0; in series [2] (20 Hours, 0.5 mM), 1; in series [2] (20 Hours, 1 mM) it was 1. Also, the Vasoconstriction activity in series [2] (20 Hours, 5 mM) is 1; in series [2] (20 Hours, 10 mM) it was 2; in series [2] (setting [3]), 1; in series [2] (setting [4]), 1; in series [2] (setting [5]), 2; in series [2] (setting [6]), 2.

By amount remaining is commonly meant the share of the starting amount still present when the sample was taken.
